Experimental data as given in patent US11633416B1, “Oral formulations of CD73 compounds” (ARCUS BIOSCIENCES, INC., priority 2020, dated 2023).
Read-outs that look alike come from different tables or passages of the source.

Experiment: Oral exposure in cynomolgus monkeys, compound alone or with excipient in capsules; plasma by LC-MS/MS
Format: in vivo
Details: enteric capsule; for MRT inf: read-out: MRT0-∞
Source text: The influence of different excipients on the bioavailability of Compound (Ia), Compound 2 and Compound 3 in cynomolgus monkeys was investigated. The excipients tested were sodium phytate, sodium citrate, sodium EDTA, cyclodextrin, sodium taurocholate, sodium polystyrene sulfate, sodium caprate, sodium phosphate, carbomer 971P and palmitoyl carnitine chloride. Generally, an appropriate quantity (as indicated in Table 1) of Compound (Ia), Compound 2 or Compound 3 and an excipient were mixed to homogeneity and transferred to capsules for dosing. In one example, Compound (Ia) (500 mg assay, 1.063 correction factor applied for to account for purity) and 2.75 g of sodium phytate (Sigma) were combined in a mortar and pestle. The mixture was ground to homogeneity then 530 mg of the white powder was transferred to enteric capsules (Size 0) prior to dosing.
[…] Compound (Ia), Compound 2 or Compound 3, either alone, or with excipient, in an enteric capsule was administered via an oral pet piller. Blood samples were collected from a peripheral vessel at designated time points, and centrifuged to obtain plasma.
Plasma samples obtained at each time point from the subjects were prepared by protein precipitation. An aliquot of 50 μL sample was added with 150 μL acetonitrile containing an internal standard ([[[(2R,3S,4R,5R)-5-[6-chloro-4-[[(1S)-2,2,2-trideuterio-1-(2-fluorophenyl)ethyl]amino]pyrazolo[3,4-b]pyridin-1-yl]-3,4-dihydroxyoxolan-2-yl]-dideuteriomethoxy]-hydroxyphosphoryl]methylphosphonic acid, 200 ng/mL in Acetonitrile). The mixture was vortexed for 15 min and then centrifuged at 4500 rpm for 15 min at 4° C. (Sorvall Legend XTR centrifuge, Thermo Scientific, Langenselbold, Germany). 80 μL of the resulting supernatant was transferred into a new plate and mixed with 160 μL water followed by LC-MS/MS analysis.
• API 4000 mass spectrometer (Applied Biosystems, Foster City, Calif.) • Shimadzu Nexera X^2 UHPLC System (Shimadzu Scientific Instruments, Canby, Oreg.) Column: SHISEIDO CAPCELL PAK INERT ADME S3 (2.00 mm×50 mm, Part No. 79001) Mobile Phase A: 8.6 mM Triethylamine, 100 mM HFIP (1,1,1,3,3,3-Hexafluoro-2-propanol) in Water Mobile Phase B: 8.6 mM Triethylamine, and 100 mM HFIP in [Acetonitrile:water (95:5, v/v) Needle wash (weak & strong): Acetone:MeCN:Water (80:20:20, v/v/v) Flow Rate: 0.50 mL/min HPLC Gradient:
• Ionization Mode: Electrospray (ESI) • Detection Mode: Negative MRM (Q1/Q3 transitions: m/z 579.0/157.0 for Compound (Ia) or Compound 3; m/z 584.0/157.0 for Internal Standard); (Q1/Q3 transitions m/z 562.2/157.0 for Compound 2; m/z 584.0/157.0 for Internal Standard)

[1] = male, cynomolgus monkey, plasma, po, 50 mg, Table 2: oral, dose 50 mg, + 275 mg sodium phytate
[2] = male, cynomolgus monkey, plasma, po, 50 mg, Table 2: oral, dose 50 mg, neat
[3] = oral, dose 50 mg, with 275 mg sodium phytate (Sigma-Aldrich, ≥5 mol sodium/mol), fasted

C[C@H](Nc1cc(Cl)nc2c1cnn2[C@@H]1O[C@H](COP(=O)(O)CP(=O)(O)O)[C@@H](O)[C@H]1O)c1ccccc1F [Ia (•3Na), (((((2R,3S,4R,5R)-5-(6-chloro-4-(((S)-1-(2-fluorophenyl)ethyl)amino)-1H-pyrazolo[3,4-b]pyridin-1-yl)-3,4-dihydroxytetrahydrofuran-2-yl)methoxy)(hydroxy)phosphoryl)methyl)phosphonic acid]
Exposure Enhancement (Table 2: oral, dose 50 mg, + 275 mg sodium phytate versus neat): 9.1-fold
AUC(0-inf) (male, cynomolgus monkey, plasma, po, 10 mg, with 195 mg sodium citrate, 6 mg SDS, fasted): 1940 ng·h/mL
Cmax (male, cynomolgus monkey, plasma, po, 10 mg, oral, dose 10 mg, with 195 mg sodium citrate, 6 mg SDS, fasted, read-out: Cmax): 286 ng/mL
AUC(0-inf) [1]: 122000 ng·h/mL
AUC(0-t) [1]: 88000 ng·h/mL
Tmax [1]: 3 h
Cmax (male, cynomolgus monkey, plasma, po, 50 mg, Table 2: oral, dose 50 mg, + 275 mg sodium phytate, read-out: Cmax): 3680 ng/mL
MRT inf [1]: 35.8 h
AUC(0-inf) [2]: 13400 ng·h/mL
AUC(0-t) [2]: 10300 ng·h/mL
Tmax [2]: 1.75 h
Cmax (male, cynomolgus monkey, plasma, po, 50 mg, Table 2: oral, dose 50 mg, neat, read-out: Cmax): 631 ng/mL
MRT inf [2]: 29.2 h
AUC(0-inf) (male, cynomolgus monkey, plasma, po, 50 mg, neat, fasted): 13400 ng·h/mL
AUC(0-inf) (male, cynomolgus monkey, plasma, po, 50 mg, with 25 mg sodium taurocholate, fasted): 9300 ng·h/mL
AUC(0-inf) (male, cynomolgus monkey, plasma, po, 50 mg, with 50 mg sodium phytate (Sigma-Aldrich), fasted): 59700 ng·h/mL
AUC(0-inf) (male, cynomolgus monkey, plasma, po, 50 mg, with 100 mg Na-EDTA, fasted): 154000 ng·h/mL
AUC(0-inf) (male, cynomolgus monkey, plasma, po, 50 mg, with 100 mg cyclodextrin, fasted): 8230 ng·h/mL
AUC(0-inf) (male, cynomolgus monkey, plasma, po, 50 mg, with 100 mg palmitoyl carnitine chloride, fasted): 43400 ng·h/mL
AUC(0-inf) (male, cynomolgus monkey, plasma, po, 50 mg, with 195 mg sodium citrate, 3 mg SDS, fasted): 22200 ng·h/mL
AUC(0-inf) (male, cynomolgus monkey, plasma, po, 50 mg, with 195 mg sodium citrate, 6 mg SDS, non-fasted animal): 16500 ng·h/mL
AUC(0-inf) (male, cynomolgus monkey, plasma, po, 50 mg, with 195 mg sodium citrate, 6 mg sodium dodecyl sulfate (SDS), fasted): 38300 ng·h/mL
AUC(0-inf) (male, cynomolgus monkey, plasma, po, 50 mg, with 227.5 mg sodium caprate, fasted): 20300 ng·h/mL
AUC(0-inf) (male, cynomolgus monkey, plasma, po, 50 mg, with 275 mg sodium phytate (Sigma-Aldrich, ≥5 mol sodium/mol), fasted): 109000 ng·h/mL
AUC(0-inf) (male, cynomolgus monkey, plasma, po, 50 mg, with 275 mg sodium phytate, dodecasodium, fasted): 69400 ng·h/mL
AUC(0-inf) (male, cynomolgus monkey, plasma, po, 50 mg, with 275 mg sodium phytate, hexasodium, fasted): 152000 ng·h/mL
AUC(0-inf) (male, cynomolgus monkey, plasma, po, 50 mg, with 325 mg sodium polystyrene sulfate, fasted): 41400 ng·h/mL
AUC(0-inf) (male, cynomolgus monkey, plasma, po, 50 mg, with 400 mg sodium phosphate, fasted): 20500 ng·h/mL
AUC(0-inf) (male, cynomolgus monkey, plasma, po, 50 mg, with 7% w/w carbomer 971P, fasted): 41300 ng·h/mL
Cmax (male, cynomolgus monkey, plasma, po, 50 mg, oral, dose 50 mg, neat, fasted, read-out: Cmax): 631 ng/mL
Cmax (male, cynomolgus monkey, plasma, po, 50 mg, oral, dose 50 mg, with 25 mg sodium taurocholate, fasted, read-out: Cmax): 455 ng/mL
Cmax (male, cynomolgus monkey, plasma, po, 50 mg, oral, dose 50 mg, with 50 mg sodium phytate (Sigma-Aldrich), fasted, read-out: Cmax): 1650 ng/mL
Cmax (male, cynomolgus monkey, plasma, po, 50 mg, oral, dose 50 mg, with 100 mg Na-EDTA, fasted, read-out: Cmax): 6840 ng/mL
Cmax (male, cynomolgus monkey, plasma, po, 50 mg, oral, dose 50 mg, with 100 mg cyclodextrin, fasted, read-out: Cmax): 526 ng/mL
Cmax (male, cynomolgus monkey, plasma, po, 50 mg, oral, dose 50 mg, with 100 mg palmitoyl carnitine chloride, fasted, read-out: Cmax): 3660 ng/mL
Cmax (male, cynomolgus monkey, plasma, po, 50 mg, oral, dose 50 mg, with 195 mg sodium citrate, 3 mg SDS, fasted, read-out: Cmax): 922 ng/mL
Cmax (male, cynomolgus monkey, plasma, po, 50 mg, oral, dose 50 mg, with 195 mg sodium citrate, 6 mg SDS, non-fasted animal, read-out: Cmax): 863 ng/mL
Cmax (male, cynomolgus monkey, plasma, po, 50 mg, oral, dose 50 mg, with 195 mg sodium citrate, 6 mg sodium dodecyl sulfate (SDS), fasted, read-out: Cmax): 1520 ng/mL
Cmax (male, cynomolgus monkey, plasma, po, 50 mg, oral, dose 50 mg, with 227.5 mg sodium caprate, fasted, read-out: Cmax): 912 ng/mL
Cmax (male, cynomolgus monkey, plasma, po, 50 mg, oral, dose 50 mg, with 275 mg sodium phytate (Sigma-Aldrich, ≥5 mol sodium/mol), fasted, read-out: Cmax): 3570 ng/mL
Cmax (male, cynomolgus monkey, plasma, po, 50 mg, oral, dose 50 mg, with 275 mg sodium phytate, dodecasodium, fasted, read-out: Cmax): 2970 ng/mL
Cmax (male, cynomolgus monkey, plasma, po, 50 mg, oral, dose 50 mg, with 275 mg sodium phytate, hexasodium, fasted, read-out: Cmax): 4440 ng/mL
Cmax (male, cynomolgus monkey, plasma, po, 50 mg, oral, dose 50 mg, with 325 mg sodium polystyrene sulfate, fasted, read-out: Cmax): 1420 ng/mL
Cmax (male, cynomolgus monkey, plasma, po, 50 mg, oral, dose 50 mg, with 400 mg sodium phosphate, fasted, read-out: Cmax): 700 ng/mL
Cmax (male, cynomolgus monkey, plasma, po, 50 mg, oral, dose 50 mg, with 7% w/w carbomer 971P, fasted, read-out: Cmax): 1480 ng/mL
AUC(0-inf) (male, cynomolgus monkey, plasma, po, 100 mg, with 275 mg sodium phytate (Sigma-Aldrich), fasted): 237000 ng·h/mL
Cmax (male, cynomolgus monkey, plasma, po, 100 mg, oral, dose 100 mg, with 275 mg sodium phytate (Sigma-Aldrich), fasted, read-out: Cmax): 5760 ng/mL
Exposure Enhancement (oral, dose 50 mg, with 50 mg sodium phytate (Sigma-Aldrich), relative to 50 mg Ia ( 3Na) without absorption enhancer): 4.5-fold^b
Exposure Enhancement (oral, dose 50 mg, with 100 mg Na-EDTA, relative to 50 mg Ia ( 3Na) without absorption enhancer): 11.5-fold^b
Exposure Enhancement (oral, dose 50 mg, with 100 mg palmitoyl carnitine chloride, relative to 50 mg Ia ( 3Na) without absorption enhancer): 3.2-fold^b
Exposure Enhancement (oral, dose 50 mg, with 195 mg sodium citrate, 3 mg SDS, relative to 50 mg Ia ( 3Na) neat): 1.7-fold
Exposure Enhancement (oral, dose 50 mg, with 195 mg sodium citrate, 6 mg SDS, non-fasted animal, relative to 50 mg Ia ( 3Na) without absorption enhancer): 1.2-fold^b
Exposure Enhancement (oral, dose 50 mg, with 195 mg sodium citrate, 6 mg SDS, relative to 50 mg Ia ( 3Na) without absorption enhancer): 2.9-fold^b
Exposure Enhancement (oral, dose 50 mg, with 227.5 mg sodium caprate, relative to 50 mg Ia ( 3Na) without absorption enhancer): 1.5-fold^b
Exposure Enhancement (oral, dose 50 mg, with 275 mg sodium phytate (Sigma-Aldrich), relative to 50 mg Ia ( 3Na) without absorption enhancer): 9.1-fold^b
Exposure Enhancement (oral, dose 50 mg, with 275 mg sodium phytate (Sigma-Aldrich), relative to 50 mg Ia ( 3Na) without absorption enhancer, listed as Ia ( 3Na)): 8.1-fold^b
AUC0-∞ [3]: 122,000 h*ng/mL
Cmax [3]: 3,680 ng/mL
Exposure Enhancement (oral, dose 50 mg, with 275 mg sodium phytate, dodecasodium, relative to 50 mg Ia ( 3Na) without absorption enhancer): 5.2-fold^b
Exposure Enhancement (oral, dose 50 mg, with 275 mg sodium phytate, hexasodium, relative to 50 mg Ia ( 3Na) without absorption enhancer): 11.4-fold^b
Exposure Enhancement (oral, dose 50 mg, with 325 mg sodium polystyrene sulfate, relative to 50 mg Ia ( 3Na) without absorption enhancer): 3.1-fold^b
Exposure Enhancement (oral, dose 50 mg, with 400 mg sodium phosphate, relative to 50 mg Ia ( 3Na) without absorption enhancer): 1.9-fold^b
Exposure Enhancement (oral, dose 50 mg, with 7% w/w carbomer 971P, relative to 50 mg Ia ( 3Na) without absorption enhancer): 3.1-fold^b
